Test results reported in US9546129B2, “DTPA prodrugs, compositions thereof, and methods of using the same” (priority 2012, dated 2017).
≈ marks a conversion by molar mass, not a printed value.

Legend:
^241Am contaminated rats = test: Once vs twice daily dosing ^241Am decorporation study in rats; format: in vivo, Sprague Dawley rat; details: for Total Decorporation: seven days after IM ^241Am
Procedure: The animal study was conducted according to a protocol approved by The University of North Carolina at Chapel Hill Institutional Animal Care and Use Committee. Sixteen male Sprague Dawley rats were contaminated with ^241Am(NO3)3 (0.25 μCi) by intramuscular injection (0.1 mL, 0.1 M HNO3) into the right hind leg, under isoflurane anesthesia. Immediately after injection, body weights were recorded (Day 0 weight) and animals placed in individual metabolic cages. The 16 rats were assigned to four groups; untreated control, 5 daily oral gavage doses of 600 mg/kg C2E2 once daily, 5 days of oral gavage treatment of 300 mg/kg C2E2 twice daily or 5 daily intravenous doses of Zn-DTPA solution (13.3 mg/kg) via a jugular vein catheter. The C2E2 was from Lot 050 obtained using Method 2. The C2E2 dosing solution utilized was a 10% w/w solution in water. […] Excreted urine and feces were collected at 2, 4, 8, 10, 12, 14, 18, 20 and 24 hours after the first dose and daily for the remainder of the study. The samples were transferred to 20 mL scintillation vials, weighed and placed in a gamma counter (Wizard2 2480, Perkin Elmer) for detection of ^241Am gamma activity. In addition, following necropsy, selected tissues were removed, weighed and placed in a gamma counter (Wizard2 2480, Perkin Elmer) for detection of ^241Am gamma activity. The total amount of ^241Am administered to the animals was determined by quantifying the 59.7 keV photons emitted by ^241Am in duplicate aliquots (100 μL) of the injection solution using a gamma counter (wizard series, Perkin-Elmer). A counting window from 40-80 keV and a 60-second counting time were used for acquisition and each reading was corrected for background at acquisition. All experimental tissues and samples were counted using the same gamma counter and protocol. For all the samples, ^241Am content was expressed as a percentage of the initial dose. The femur from the leg opposite to the injection site was scaled by a factor of 20 to estimate total skeletal ^241Am burden.

[1] = Gadolinium complex stability constant by titration; format: binding; details: 3-5 mM in 0.1 M KCl, equimolar gadolinium chloride
Procedure: The stability constant for a complex between C2E2 and gadolinium (i.e., the C2E2-Gd complex) was determined by titration. C2E2 solutions (3-5 mM) were prepared in 0.1 M KCl. Gadolinium chloride was added in equimolar concentrations. The experiment consisted of a titration with base, followed by a titration with acid. After each addition of titrant, a 30 second equilibration time passed before pH measurement with a Seven Easy pH meter and (Ag/AgCl reference) glass electrode (Metler Tolledo). The pKa values previously determined, as described in Example 9, were used to calculate the gadolinium stability constant using […] software. The stability of the C2E2-Gd complex was log K 17.34±1.13, which lies between those of EDTA and DTPA (17.0 and 22.5, respectively).

[2] = Aqueous solubility, preliminary test; format: physicochemical; details: thermodynamic from solid; distilled water, 10 minutes stirring, visual check, sample JH012B; read-out: Approximate solubility
Procedure: A small sample of C2E2 (0.1 g, JH012B) was weighed out and placed in a 25 mL graduated cylinder. Increasing volumes of distilled water were added according to the chart below:
After each addition of the indicated amount of water, the mixture was stirred for 10 minutes and visually checked for any dissolved parts of the sample. […] The approximate solubility is therefore 10-50 g/L.

[3] = Stability of C2E2 in plasma (human); format: in vitro ADME; details: 37° C.
Procedure: Prior to the study, 975 μL of plasma (Rat, Beagle and Human) was preheated to 37° C. in Eppendorff tubes and the test compound (C2E2) was prepared in DI water (10 mg/mL). The C2E2 was from Lot 050 obtained using Method 2. To initiate the study, 25 μL of the C2E2 solution was added to the pre-heated plasma and briefly vortexed, to mix. At 0, 15, 30, 60 and 120 minutes a 100 μL sample of plasma was taken, an equal volume of cold acetonitrile was added and mixed to precipitate plasma proteins. Samples were centrifuged at 4° C. and 14,000×g for 10 minutes to remove precipitated proteins, the supernatant was collected and the C2E2 concentration determined by HPLC-CAD. All conditions were repeated in triplicate.
HPLC Detection Methods: C2E2 analysis was performed on a prominence HPLC (Shimadzu Corporation, Kyoto, Japan) equipped with a Corona Ultra charged […] detector (CAD) (Thermo scientific, Sunnyvale, Calif.). […]
The gradient is 0.01-34.99 min: 22% B; 35.00-44.99 min: 33% B; 45.00-60.00 min: 38% B. The flow rate is 1.0 mL/min, a Thermo Hypersil ODS column (150 mm 4.6 mm i.d. with 5.0 μm particles) will be used, injection volume will be 10 μL and column oven temperature maintained at 25° C. […] The limit of quantification is 0.35 μg/mL. […]

[4] = Protonation constants by potentiometric titration; format: physicochemical; details: 5 mM ligand in 0.15 M KCl
Procedure: The protonation constants for C2E2 were determined by preparing a 5 mM solution of free ligand in 0.15 M KCl. The constants were calculated from three replicates, with each experiment consisting of a titration with acid, followed by a titration with base. After each addition of titrant, a 30 second equilibration time passed before pH measurement with a Seven Easy pH meter and (Ag/AgCl reference) glass electrode (Metler Tolledo). At the end of the titrations, the presence of C2E2 was confirmed by HPLC-CAD. Evaluation of the titration curve for C2E2 (FIG. 31) identified 6 pKa values that correspond with the three tertiary amines and three carboxylic acids. The values were determined by refinement using […] software. The pKa values determined for C2E2 are consistent with DTPA analogues previously investigated for use as MRI contrast agents with two carboxylic acids are functionalized such as DTPA-BMA and DTPA-BBA (Rizkalla, E. N., et al., Inorganic Chemistry, 32, 582-586, (1993) and Geraldes C. F., et al., Journal of the Chemical Society-Dalton Transactions, 327-335 (1995)).

CCOC(=O)CN(CCN(CCN(CC(=O)O)CC(=O)OCC)CC(=O)O)CC(=O)O [C2E2, 6,9-bis(carboxymethyl)-3-(2-ethoxy-2-oxoethyl)-11-oxo-12-oxa-3,6,9-triazatetradecan-1-oic acid]
Effect of dividing the dosage (twice daily vs once daily) on total decorporation (^241Am contaminated rats; 300 mg/kg BD vs 600 mg/kg OD, male rats): did not significantly alter total decorporation | Total Decorporation (^241Am contaminated rats; C2E2 300 mg/kg oral gavage twice daily for 5 days, male rats): 43.6 ± 1.6 % of injected dose | Total Decorporation (^241Am contaminated rats; C2E2 600 mg/kg oral gavage once daily x5, male rats): 39.7 ± 2.6 % of injected dose | Stability of the gadolinium complex, log K [1]: 17.34±1.13 | solubility at 10 min [2]: 10 to 50 mg/mL (≈ 22.2 to 111 mM) | C2E2 remaining ([3]; after 2 hours): approximately 90% | Metabolism in plasma (observation) ([3]; up to two hours): minimal or not detected | PKa2 [4]: 4.68 ± 0.02 | pKa1 [4]: 9.40 | pKa3 [4]: 3.52 ± 0.03 | pKa4 [4]: 1.87 ± 0.05 | pKa5 [4]: 1.76 | pKa6 [4]: 1.45
